Article PMC4578769, “Development of a Fluorescence-based Trypanosoma cruzi CYP51 Inhibition Assay for Effective Compound Triaging in Drug Discovery Programmes for Chagas Disease” (PLoS Neglected Tropical Diseases, 2015)
Where two headings read alike, the source gives them in different places.

Tests used:
[1] = tested on: T. cruzi; details: cited from earlier work; for re-emergence of parasitaemia once dosing has been completed: clinical trial, patients
[2] = target: T1, T. cruzi CYP51 (Tulahuen strain) (Trypanosoma cruzi, UniProt Q7Z1V1); experiment: biochemical; assay type: biochemical; details: for inhibition of T. cruzi CYP51 (in words): known CYP450 inhibitors
T1 construct: ompA leader (N); host or cells: E. coli JM109 (membrane fraction, bactosomes)
T1 sequence (Q7Z1V1 whole entry): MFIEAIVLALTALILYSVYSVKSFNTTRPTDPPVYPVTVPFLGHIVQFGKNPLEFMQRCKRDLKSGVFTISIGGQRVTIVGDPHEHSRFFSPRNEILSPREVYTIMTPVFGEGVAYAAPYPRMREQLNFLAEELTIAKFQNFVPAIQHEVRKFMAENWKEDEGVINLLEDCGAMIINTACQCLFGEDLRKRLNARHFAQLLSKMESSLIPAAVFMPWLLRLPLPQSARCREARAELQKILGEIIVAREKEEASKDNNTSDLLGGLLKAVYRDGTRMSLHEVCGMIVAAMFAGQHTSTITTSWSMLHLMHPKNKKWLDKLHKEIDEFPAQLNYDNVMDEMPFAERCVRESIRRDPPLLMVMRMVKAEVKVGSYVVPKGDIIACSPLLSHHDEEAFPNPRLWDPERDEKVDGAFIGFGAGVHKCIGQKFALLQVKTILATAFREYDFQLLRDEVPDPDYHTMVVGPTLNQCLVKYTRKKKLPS
Procedure: E. coli membrane fractions containing the T. cruzi CYP51 (Tulahuen strain) (Bactosomes) were provided by Cypex Ltd.
For each concentration of test compound the rate of fluorescence units per minute was calculated as a percentage of the average rate of the solvent only control wells.
The percentage of solvent control values was then plotted against the concentration range. Using the following 4 parameter fit equation, an IC50 value can be determined.
y=Range/1+(x/IC50)^s+Background
With kinetic parameters established, a microtitre-based assay to measure inhibition of recombinantly expressed T. cruzi CYP51 by test compounds was then implemented. […] Incubations containing 37 pmoles/mL of T. cruzi CYP51 in bactosomes, 100 μM BOMCC, 10, 3.3, 1.0, 0.33, 0.1, 0.033 or 0.01 μM test compound (2% v/v solvent) in 50 mM potassium phosphate buffer (pH 7.4), were pre-incubated at 37°C for 5 minutes. Upon addition of NADPH regenerating system (7.8 mg [[…]] glucose-6-phosphate, 1.7 mg [[…]] NADP, 6 units/mL glucose-6-phosphate dehydrogenase in 2% w/v sodium bicarbonate buffer) production of fluorescent metabolite CHC was measured (Exc 410 nm, Em 460 nm) at 1 minute intervals over a 10 minute period. Rates of metabolite production per minute were compared to uninhibited controls and plotted against test compound concentration to obtain an IC50.

Structure (SMILES) | inhibition of T. cruzi CYP51 (in words) [2] | IC50 [2] | further results
CC(=O)N1CCN(c2ccc(OCC3COC(Cn4ccnc4)(c4ccc(Cl)cc4Cl)O3)cc2)CC1 (centres unmarked) [Ketoconazole] |  |  | curative activity in humans with chronic Chagas disease [1]: not demonstrated significant curative activity
Nc1ccc(S(=O)(=O)Nc2ccnn2-c2ccccc2)cc1 [Sulphaphenazole] | did not appear to inhibit |  | IC50 ([2]; read-out: IC50 (μM), n = 3, 37 pmoles/mL T. cruzi CYP51 in bactosomes, 100 μM BOMCC, pH 7.4, 37°C, enzyme concentration defines minimum IC50 of approximately 0.02 μM): > 8 µM
C[C@@H](c1nc(-c2ccc(C#N)cc2)cs1)[C@](O)(Cn1cncn1)c1ccc(F)cc1F [ravuconazole] |  |  | re-emergence of parasitaemia once dosing has been completed [1]: re-emergence of parasitaemia in two thirds of patients
Cc1nc2c([nH]1)c(=O)n(C)c(=O)n2Cc1ccco1 [Furafylline] | did not appear to inhibit | > 8 µM | 
CCC(C)n1ncn(-c2ccc(N3CCN(c4ccc(OCC5COC(Cn6cncn6)(c6ccc(Cl)cc6Cl)O5)cc4)CC3)cc2)c1=O (centres unmarked) [Itraconazole] |  |  | curative activity in humans with chronic Chagas disease [1]: not demonstrated significant curative activity
Clc1ccc(COC(Cn2ccnc2)c2ccc(Cl)cc2Cl)c(Cl)c1 (centres unmarked) [Miconazole] |  | 0.057 µM | 
C=C[C@H]1C[N@@]2CC[C@H]1C[C@@H]2[C@@H](O)c1ccnc2ccc(OC)cc12 [Quinidine] | did not appear to inhibit | > 8 µM | 
Clc1ccccc1CN1CCc2sccc2C1 [Ticlopidine] | did not appear to inhibit | > 8 µM | 
CC[C@@H]([C@H](C)O)n1ncn(-c2ccc(N3CCN(c4ccc(OC[C@@H]5CO[C@@](Cn6cncn6)(c6ccc(F)cc6F)C5)cc4)CC3)cc2)c1=O [Posaconazole] |  |  | re-emergence of parasitaemia once dosing has been completed [1]: re-emergence of parasitaemia in two thirds of patients
Cn1cc[nH]c1=S [Methimazole] |  | > 8 µM | 
